Assay results as given in patent publication US20130324522A1, “INSECT ODORANT RECEPTOR ANTAGONISTS” (THE ROCKEFELLER UNIVERSITY, priority 2010, published 2013).
Where two headings read alike, the source gives them in different places.

Tests used:
Format in all cases: cell-based
[1] = biological target: OR8/OR7 (Anopheles gambiae, UniProt Q7PUT5+Q7QCC7); test: Ca2+-imaging of stable HEK293T cell line OR8/OR7; conditions: for inhibition at 4 µM: HEK-293T, compound applied at 4 μM, read-out: Percent Inhibition OR8 OR7
Chain of OR8/OR7 (Q7QCC7 whole entry): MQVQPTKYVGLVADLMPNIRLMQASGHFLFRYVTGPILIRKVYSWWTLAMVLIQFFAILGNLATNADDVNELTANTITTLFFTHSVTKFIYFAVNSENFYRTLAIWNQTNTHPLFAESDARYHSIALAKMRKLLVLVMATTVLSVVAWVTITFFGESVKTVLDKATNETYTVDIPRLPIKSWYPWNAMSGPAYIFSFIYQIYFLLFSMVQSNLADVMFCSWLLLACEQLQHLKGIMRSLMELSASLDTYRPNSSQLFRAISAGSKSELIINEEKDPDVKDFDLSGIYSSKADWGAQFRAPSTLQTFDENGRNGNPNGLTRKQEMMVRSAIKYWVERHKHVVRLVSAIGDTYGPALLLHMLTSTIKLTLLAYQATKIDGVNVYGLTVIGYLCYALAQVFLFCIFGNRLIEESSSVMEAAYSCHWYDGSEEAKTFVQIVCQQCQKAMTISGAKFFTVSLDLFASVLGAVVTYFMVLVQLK
Chain of OR8/OR7 (Q7PUT5 entry or part of it): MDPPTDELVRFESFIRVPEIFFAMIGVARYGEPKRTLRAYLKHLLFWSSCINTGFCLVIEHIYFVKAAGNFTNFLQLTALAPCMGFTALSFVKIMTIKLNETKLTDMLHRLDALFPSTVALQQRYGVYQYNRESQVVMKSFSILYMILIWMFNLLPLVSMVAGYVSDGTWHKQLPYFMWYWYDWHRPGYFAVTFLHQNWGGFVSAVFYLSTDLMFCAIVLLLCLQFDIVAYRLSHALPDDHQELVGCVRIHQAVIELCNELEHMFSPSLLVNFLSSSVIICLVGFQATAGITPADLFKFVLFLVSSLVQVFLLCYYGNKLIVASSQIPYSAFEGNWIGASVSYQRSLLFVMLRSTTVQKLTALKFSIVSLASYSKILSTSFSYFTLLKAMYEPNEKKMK
In short: (§1)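 Stable HEK293T lines co-expressing the Anopheles ligand-specific OR with co-receptor OR7 (or mouse TRPM8 alone) were seeded on poly-D-lysine at 10,000 cells/well and cultured 2 days. Cells were loaded with Ca-4 dye for 1.5 hr at room temperature, then odorant/compound solutions in HBSS were added on an FDSS6000 reader.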

[2] = biological target: OR28/OR7 (Anopheles gambiae, UniProt A0A1S4GFY3+Q7QCC7); test: Ca2+-imaging of stable HEK293T cell line OR28/OR7; conditions: for inhibition at 4 µM: HEK-293T, compound applied at 4 μM, read-out: Percent Inhibition OR28 OR7
Chain of OR28/OR7 (A0A1S4GFY3 entry or part of it): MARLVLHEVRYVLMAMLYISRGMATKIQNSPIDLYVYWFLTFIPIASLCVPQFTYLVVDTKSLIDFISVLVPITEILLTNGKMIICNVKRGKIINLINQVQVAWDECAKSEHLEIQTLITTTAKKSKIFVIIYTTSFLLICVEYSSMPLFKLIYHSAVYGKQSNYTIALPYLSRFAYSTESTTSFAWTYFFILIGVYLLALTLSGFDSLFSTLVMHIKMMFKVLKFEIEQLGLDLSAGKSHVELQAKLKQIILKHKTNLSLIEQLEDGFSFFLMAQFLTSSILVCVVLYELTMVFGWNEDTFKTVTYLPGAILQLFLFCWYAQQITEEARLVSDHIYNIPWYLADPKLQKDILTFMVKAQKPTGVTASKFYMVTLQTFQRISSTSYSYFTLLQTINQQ
Chain of OR28/OR7 (Q7QCC7 whole entry): as the sequence (Q7QCC7 whole entry) above
In short: as §1

[3] = biological target: T1, Or47a/Or83b (Drosophila melanogaster, UniProt P81921+Q9VNB5); test: Ca2+-imaging of stable Flip-In T-Rex cell line Or47a/Or83b; conditions: for inhibition at 4 µM: compound applied at 4 μM, read-out: Percent Inhibition OR47a OR83b
T1 construct: Full-length cDNAs for mosquito (Anopheles gambiae) odorant receptor (OR1, OR2, OR7, OR8, OR28), and fly (Drosophila melanogaster) odorant receptor (Or47a, Or83b); expressed in transfected cells
T1 sequence (P81921 1-385): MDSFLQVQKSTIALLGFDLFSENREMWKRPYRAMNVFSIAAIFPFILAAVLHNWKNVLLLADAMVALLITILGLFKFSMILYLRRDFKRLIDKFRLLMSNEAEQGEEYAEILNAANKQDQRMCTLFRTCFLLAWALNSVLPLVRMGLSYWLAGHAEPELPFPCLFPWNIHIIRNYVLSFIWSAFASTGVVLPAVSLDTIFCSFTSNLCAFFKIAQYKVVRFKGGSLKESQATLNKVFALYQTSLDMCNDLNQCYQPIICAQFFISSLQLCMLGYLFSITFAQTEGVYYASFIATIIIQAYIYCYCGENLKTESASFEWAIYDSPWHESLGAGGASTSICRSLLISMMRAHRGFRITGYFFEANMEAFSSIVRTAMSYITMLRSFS
T1 sequence (Q9VNB5 1-486): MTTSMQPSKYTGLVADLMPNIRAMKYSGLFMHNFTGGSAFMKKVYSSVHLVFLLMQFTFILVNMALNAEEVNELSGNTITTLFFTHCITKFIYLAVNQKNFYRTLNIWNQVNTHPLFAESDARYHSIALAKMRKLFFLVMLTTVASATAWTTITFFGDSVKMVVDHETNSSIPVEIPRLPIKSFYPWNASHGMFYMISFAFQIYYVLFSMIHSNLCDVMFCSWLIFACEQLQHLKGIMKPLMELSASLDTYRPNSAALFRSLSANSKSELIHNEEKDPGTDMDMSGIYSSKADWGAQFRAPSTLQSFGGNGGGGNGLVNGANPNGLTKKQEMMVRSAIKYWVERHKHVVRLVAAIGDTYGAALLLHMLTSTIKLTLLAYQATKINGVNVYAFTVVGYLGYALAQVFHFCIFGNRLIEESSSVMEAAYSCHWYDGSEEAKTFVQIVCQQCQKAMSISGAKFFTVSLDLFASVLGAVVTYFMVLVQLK
In short: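 Flp-In T-REx stable lines (Drosophila Or47a/Or83b or mouse 5HT3), 10,000 cells/well cultured 2 days, induced with tetracycline 1 day before assay.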

[4] = biological target: T2, TRP channel (TRPM8) (Mus musculus, UniProt Q8R4D5); test: Ca2+-imaging of stable HEK293T cell line TRPM8; conditions: for inhibition at 4 µM: HEK-293T, compound applied at 4 μM, read-out: Percent Inhibition TRPM8
T2 construct: Full-length cDNAs for mosquito (Anopheles gambiae) odorant receptor (OR1, OR2, OR7, OR8, OR28), and fly (Drosophila melanogaster) odorant receptor (Or47a, Or83b), mouse TRP channel (TRPM8); expressed in transfected cells
T2 sequence (Q8R4D5 whole entry): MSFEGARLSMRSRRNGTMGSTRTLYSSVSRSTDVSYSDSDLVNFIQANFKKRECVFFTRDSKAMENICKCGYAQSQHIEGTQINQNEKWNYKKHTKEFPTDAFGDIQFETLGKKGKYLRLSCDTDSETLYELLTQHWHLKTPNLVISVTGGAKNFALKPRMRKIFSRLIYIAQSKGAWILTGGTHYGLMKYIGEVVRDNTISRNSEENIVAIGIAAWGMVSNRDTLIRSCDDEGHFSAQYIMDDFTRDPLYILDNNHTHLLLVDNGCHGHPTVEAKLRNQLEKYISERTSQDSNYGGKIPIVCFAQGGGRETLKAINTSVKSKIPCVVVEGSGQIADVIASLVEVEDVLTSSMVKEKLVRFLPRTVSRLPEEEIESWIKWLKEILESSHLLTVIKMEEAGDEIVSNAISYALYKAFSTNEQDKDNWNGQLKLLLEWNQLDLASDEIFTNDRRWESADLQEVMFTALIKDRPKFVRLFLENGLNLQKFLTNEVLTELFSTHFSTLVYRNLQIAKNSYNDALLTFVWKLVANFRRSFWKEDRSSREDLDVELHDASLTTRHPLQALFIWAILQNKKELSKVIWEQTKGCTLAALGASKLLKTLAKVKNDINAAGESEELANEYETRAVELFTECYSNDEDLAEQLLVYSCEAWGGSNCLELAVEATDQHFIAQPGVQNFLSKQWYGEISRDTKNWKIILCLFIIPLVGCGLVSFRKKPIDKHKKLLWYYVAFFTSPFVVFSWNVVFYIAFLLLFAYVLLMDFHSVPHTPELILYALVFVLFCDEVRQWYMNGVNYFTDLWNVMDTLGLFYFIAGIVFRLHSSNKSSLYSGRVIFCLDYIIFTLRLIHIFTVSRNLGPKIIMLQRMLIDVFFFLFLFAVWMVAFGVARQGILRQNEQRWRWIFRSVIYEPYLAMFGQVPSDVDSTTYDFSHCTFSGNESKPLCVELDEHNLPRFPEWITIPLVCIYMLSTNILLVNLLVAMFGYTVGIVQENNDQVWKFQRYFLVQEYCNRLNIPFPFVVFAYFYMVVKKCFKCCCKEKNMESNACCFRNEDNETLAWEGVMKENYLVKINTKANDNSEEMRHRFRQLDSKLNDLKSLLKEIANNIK
In short: as §1

| SMILES | inhibition at 4 µM [1] [%] | inhibition at 4 µM [2] [%] | IC50 ([2]; Table B, read-out: IC50 OR28) [nM] | inhibition at 4 µM [3] [%] | inhibition at 4 µM [4] [%] | IC50 ([1]; Table B, read-out: IC50 OR8) [nM] | IC50 ([3]; Table B, read-out: IC50 OR47a) [nM] | IC50 ([1]; ligand 1-octen-3-ol 30 μM, read-out: IC50 OR8 OR7) [nM] | IC50 ([2]; ligand acetophenone 300 μM, read-out: IC50 OR28 OR7) [nM] | IC50 ([3]; ligand pentyl acetate 30 μM, read-out: IC50 OR47a OR83b) [nM] | IC50 ([4]; ligand menthol 300 μM, read-out: IC50 TRPM8) [nM] |
| --- | --- | --- | --- | --- | --- | --- | --- | --- | --- | --- | --- |
| O=C(c1c(F)c(F)cc(F)c1F)N1CCOC(Cc2ccccc2)C1 (stereo not drawn) [RU-0050393] | 26 to 50 | > 75 | < 100 | 26 to 50 | < 25 | – | – | – | – | – | – |
| COCCCN(Cc1c(-c2ccccc2)noc1N1CCCC1)C(=O)c1ccc(F)cc1 [RU-0037386] | 51 to 74 | > 75 | < 100 | 51 to 74 | < 25 | > 1000 | > 1000 | – | – | – | – |
| Cc1ccccc1C(=O)N[C@@H]1CCCCC1NC(=O)C1CCN(C(=O)C23CC4CC(CC(C4)C2)C3)CC1 (stereo partly drawn) [RU-0045351] | < 25 | > 75 | < 100 | 26 to 50 | < 25 | – | – | – | – | – | – |
| CC(=O)OCC(=O)NCC1Cc2cc(Oc3ccccc3)ccc2O1 (stereo not drawn) [RU-0079120] | < 25 | > 75 | < 100 | 51 to 74 | < 25 | – | < 100 | – | – | – | – |
| O=C(c1ccco1)N(Cc1ccco1)Cc1nccn1Cc1ccccc1F [RU-0047694] | 51 to 74 | > 75 | < 100 | 26 to 50 | < 25 | 100 to 1000 | – | – | – | – | – |
| COCCN(Cc1c(-c2ccccc2)noc1N1CCSCC1)CC(O)COCc1ccco1 (stereo not drawn) [RU-0037278] | 26 to 50 | > 75 | < 100 | 51 to 74 | < 25 | – | > 1000 | – | – | – | – |
| CCc1cc(N2CCCC2)nc(SCc2ccc(C(=O)N3CCOCC3)o2)n1 [RU-0047568] | 26 to 50 | > 75 | < 100 | 26 to 50 | 26 to 50 | – | – | – | – | – | – |
| CCN(CC)C(=O)c1cccc(C)c1 [DEET, N,N-diethyl-m-toluamide, reference compound] | – | – | – | – | – | – | – | > 50000 | > 50000 | > 50000 | > 20000 |
| O=C(NCCC(=O)N1CCOC(COCc2ccc(F)cc2Cl)C1)OCc1ccccc1 (stereo not drawn) [RU-0050344] | 26 to 50 | > 75 | < 100 | 26 to 50 | < 25 | – | – | – | – | – | – |
| Cc1ccc(-c2nnc(SCCCC(=O)N3CCN(C(=O)c4cccc(F)c4)C(C)C3)n2-c2ccc(C)cc2)cc1 (stereo not drawn) [RU-0071789] | < 25 | > 75 | < 100 | 26 to 50 | < 25 | – | – | – | – | – | – |
